Columns and labels:
Assay type in all cases: biochemical
[1] = tested on: 482 bp of human β-globin; experiment: PCR amplification of 482 bp of human β-globin with dUTP in place of dTTP; set-up: key to Results of PCR in the presence of dUTP 481 bp: A: Amplified; B: Amplified (faint band); C: Not amplified; conditions: for Results of PCR in the presence of dUTP 481 bp: dTTP replaced by dUTP, 35 cycles; for PCR amplification of 482 bp with dUTP: 100% dUTP instead of dTTP (FIGS. 5 to 8)
In short: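 482 bp human β-globin amplified from 10 ng human genomic DNA with 1 U enzyme premixed with KOD antibody, using 0.2 mM dNTPs with either dTTP or dUTP, 1.5 mM MgSO4, 15 pmol primers. Cycling: 94 °C 2 min, then 35 cycles of 98 °C 10 s, 68 °C 1 min; products analysed by MultiNA DNA-1000 microchip electrophoresis.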

[2] = tested on: Psychrobacter DNA; experiment: PCR amplification using inosine-containing primers; conditions: primers 75 pmol or 150 pmol, 35 cycles (FIG. 11)
Experimental: Using inosine-containing primers, the difference in PCR amplification was compared. For comparison, KOD mutants and KOD (wild-type), each mixed with 1 μg of a KOD antibody per U of the enzyme, and Taq DNA polymerase mixed with an antibody (a mixture of equal amounts of Taq DNA polymerase (produced by Toyobo Co. Ltd.) and Anti-Taq High (produced by Toyobo Co. Ltd.)) were used.
For PCR with the KOD mutants and PCR with the KOD, a buffer, MgSO4, and dNTPs included in KOD-Plus-Ver. 2 (produced by Toyobo Co. Ltd.) were used. 50 μl of individual reaction solutions containing 1× PCR buffer, 1.5 mM MgSO4, dNTPs (dATP, dTTP, dCTP, dGTP) in an amount of 0.2 mM, primers (SEQ ID NOs: 40 and 41) in an amount of 75 pmol or 150 pmol, 100 ng of Psychrobacter DNA, and 1 U of each respective enzyme mixed with the antibody were used. PCR was performed using a GeneAmp PCR system 9700 (Applied Biosystems) on the following schedule: preliminary reaction at 94° C. for 2 minutes, followed by 35 cycles, each cycle consisting of 98° C. for 10 seconds, 54° C. for 10 seconds, and 68° C. for 1 minute.
For PCR with the Taq DNA polymerase, 50 μl of a reaction solution containing 1× buffer included in Blend Taq (product of Toyobo), dNTPs (dATP, […], dCTP, dGTP) in an amount of 0.2 mM, primers in an amount of 75 pmol or 150 pmol (the same as above), 100 ng of Psychrobacter DNA, and 2.5 U of the enzyme mixed with the antibody was used. PCR was performed using a GeneAmp PCR system 9700 (Applied Biosystems) on the following schedule: preliminary reaction at 94° C. for 2 minutes, followed by 35 cycles, each cycle consisting of 94° C. for 30 seconds, 54° C. for 30 seconds, and 68° C. for 1 minute.
After the completion of each individual reaction, each of the resulting reaction solutions was analyzed using a DNA-1000 kit for MultiNA (produced by Shimadzu Corporation) to confirm amplified DNA fragments.

[3] = tested on: 0.7 kbp of human β-globin amplified in PCR with dUTP; experiment: Degradation with UNG of DNA amplified in the presence of dUTP; conditions: for degradation with UNG of DNA amplified with the polymerase in the presence of dUTP: 37° C. for 10 minutes (FIG. 13)
Experimental: It was confirmed whether 0.7 kbp of human β-globin amplified using KOD mutant with reduced uracil sensitivity (N210D/Y7A/P36H) in PCR with dUTP was degraded by being reacted with UNG. For PCR, components included in KOD-Plus-Ver. 2 (produced by Toyobo Co. Ltd.) were used. 50 μl of a reaction solution containing 1× PCR buffer, 1.5 mM MgSO4, dNTPs (dATP, dUTP, dCTP, dGTP) in an amount of 2 mM in which dTTP was replaced by dUTP, primers (SEQ ID NOs: 50 and 51) in an amount of 15 pmol, 10 ng of human genomic DNA (produced by Roche), and 1 U of the enzyme mixed with an antibody was used. PCR was performed using a GeneAmp PCR system 9700 (Applied Biosystems) on the following schedule: preliminary reaction at 94° C. for 2 minutes, followed by 35 cycles, each cycle consisting of 98° C. for 10 seconds, 60° C. for 30 seconds, and 68° C. for 1 minute. The amplification products were diluted with the above-mentioned 1× PCR buffer to 10 ng/μl, 8 μl of the diluted amplification products was mixed with 2 μl of various concentrations of UNG (produced by Roche), and the mixtures were reacted at 37° C. for 10 minutes. After the completion of each individual reaction, each of the mixtures was analyzed using a DNA-1000 kit for MultiNA (produced by Shimadzu Corporation) to confirm the amount of amplification products.

Substance | Results of PCR in the presence of dUTP 481 bp [1] | amplification with inosine-containing primers [2] | amount of UNG that completely degraded the amplified DNA ([3]; 80 ng of DNA, 37° C. for 10 minutes) | degradation with UNG of DNA amplified with the polymerase in the presence of dUTP [3] | PCR amplification of 482 bp with dUTP [1] | PCR amplification of 482 bp with dUTP ([1]; listed as V93K/Y7A)
KOD N210D/Y7A/P36H: KOD N210D (exo(−)) mutant with Y7A and P36H | A | stable amplification was confirmed | 0.25 U | can be degraded by being reacted with UNG | – | –
KOD Y7A/P36H: modified KOD DNA polymerase with Y7A and P36H | A | stable amplification was confirmed | – | the DNA was degraded with UNG | allowed for PCR amplification | –
KOD Y7A/V93K: modified KOD DNA polymerase with Y7A and V93K | A | stable amplification was confirmed | – | the DNA was degraded with UNG | allowed for PCR amplification | greatly improve the amplification amount, compared to V93K

Source: patent US20150218534A1, “MODIFIED DNA POLYMERASE” (TOYOBO CO., LTD., priority 2012, published 2015)
